Drawing on patent US20240409530A1, “Disubstituted Pyrimidine Compounds for Ketohexokinase Inhibition” (Centennial Therapeutics, LLC, priority 2023, published 2024), this text covers IC50 for 7 compounds.

Molecules are shown by their SMILES.

One assay deals with Human recombinant KHK-A (Homo sapiens (Human), UniProt P50053). Nature of the assay: KHK inhibition assay, recombinant isozyme (coupled pyruvate kinase/LDH, NADH absorbance 340 nm). It counts as biochemical. As to conditions: recombinant isozyme 6 nM, fructose 2 mM, ATP 0.1 mM. The protocol:
(§1) Determination of Human and Rat recombinant KHK-A and KHK-C isozyme IC50 Values
(§2) An assay reagent cocktail was prepared by combining NADH, water, TEA, KCl, MgCl2, PEP, ATP, DTT, coupling enzymes (pyruvate kinase and lactate dehydrogenase, LDH) to final concentrations as shown in Table B.
(§3) To this was added the relevant KHK isozyme to a final concentration of 6 nM. Aliquots of each inhibitor compound were diluted via 5-fold serial dilutions to produce final concentrations ranging from 1000 nM to 0.064 nM. The inhibitor aliquots were added to the assay reagent cocktail containing KHK with fructose (at a concentration of 2 mM) in a 96-well plate. The absorbance at 340 nm was measured via spectrophotometry and inhibition was analyzed using non-linear regression.

Another assay deals with Human recombinant KHK-C (Homo sapiens (Human), UniProt P50053). The assay is described as above. Format: biochemical. As to conditions: recombinant isozyme 6 nM, fructose 2 mM, ATP 0.1 mM. As for the experimental part: as §1, §2, §3
Chain of Human recombinant KHK-C (P50053 whole entry): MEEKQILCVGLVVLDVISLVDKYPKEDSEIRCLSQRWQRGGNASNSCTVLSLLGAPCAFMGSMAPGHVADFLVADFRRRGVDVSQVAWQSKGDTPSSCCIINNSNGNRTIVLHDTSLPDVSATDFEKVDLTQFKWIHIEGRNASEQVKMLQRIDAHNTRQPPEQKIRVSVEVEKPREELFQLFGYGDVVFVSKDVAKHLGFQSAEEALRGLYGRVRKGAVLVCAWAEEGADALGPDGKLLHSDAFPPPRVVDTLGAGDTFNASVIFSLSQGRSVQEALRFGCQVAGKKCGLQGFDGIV
The target in the next assay is Rat recombinant KHK-A (Rattus norvegicus (Rat), UniProt Q02974). The description is as above. Format: biochemical. As to conditions: recombinant isozyme 6 nM, fructose 2 mM, ATP 0.1 mM. As for the experimental part: as §1, §2, §3
Chain of Rat recombinant KHK-A (Q02974 other isoform, or with tags, fused parts or gaps): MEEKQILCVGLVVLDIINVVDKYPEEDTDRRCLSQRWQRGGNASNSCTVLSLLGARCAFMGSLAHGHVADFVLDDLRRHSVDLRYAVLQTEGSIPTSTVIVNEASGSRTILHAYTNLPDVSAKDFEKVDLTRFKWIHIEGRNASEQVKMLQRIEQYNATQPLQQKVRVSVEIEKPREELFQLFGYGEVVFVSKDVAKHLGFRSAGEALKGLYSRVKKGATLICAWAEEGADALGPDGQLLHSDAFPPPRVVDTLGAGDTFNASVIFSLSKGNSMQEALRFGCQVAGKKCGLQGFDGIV
For another assay, the target named is Rat recombinant KHK-C (Rattus norvegicus (Rat), UniProt Q02974). Described as above. As to conditions: recombinant isozyme 6 nM, fructose 2 mM, ATP 0.1 mM. Format: biochemical. The protocol:
as §1, §2, §3

A further assay has as its target human KHK in HepG2 Cells (Homo sapiens (Human), UniProt P50053). Briefly: Cell-based potency assay (HepG2 assay), F1P by LC/MS. As to conditions: fructose 20 mM, 20 min, F1P produced. The protocol: Testing inhibition effect of compounds against human KHK in HepG2 Cells
HepG2 cells were grown in RPMI1640 supplemented media on 100 mm plates to near confluency (about 5-8×10^6 cells). The growth media was aspirated and 4 mL trypsin solution (0.25% (w/v)+0.25% (w/v) EDTA) was added, followed by incubation at 37° C. for 5-10 mins. The cells were pelleted and resuspended in 2 mL complete media.
The cells were then placed in a 96 well plate at 20,000-50,000 cells per well and grown for 20-28 hours at 37° C. to allow adherence.
Inhibitor compounds were diluted in DMSO to 50 μM, then serially diluted with MEM media (ThermoFisher). Final inhibitor concentration ranged from 1000 nM to 0.064 nM (5-fold dilution series).
The RPMI medium was removed from the plate of confluent cells. The plate was then incubated for 35 min at 37°, after which were added 0.1 mL of the diluted inhibitor compounds in MEM with fructose, 0.1 mL of MEM media without inhibitor compound or fructose, or trypsin; yielding a final concentration of fructose at 20 mM. The plate was subsequently incubated for 20 min at 37°, then placed on ice to stop the reactions.
Next, 200 μL of cold 80% (v/v) methanol:water was added to all wells, except the controls used to enumerate cell count. The plate was vortexed and cell debris removed by centrifugation. To measure F1P produced, the resulting supernatant fraction was analyzed by LC/MS.

Assay [1] has as its target human KHK-C in engineered HepG2 cells (Homo sapiens (Human), UniProt P50053). Briefly: Cell-based potency assay (KHK-C-overexpressing HepG2 assay), F1P by LC/MS. As to conditions: fructose 30 mM, 5 min, F1P produced, geomean. The protocol: Testing inhibition effect of compounds against human KHK-C in engineered HepG2 cells.
Engineered HepG2 cells were generated using methods known to those of skill in the art. Briefly, HepG2 cells were incubated with lentivirus carrying a transgene encoding human KHK-C, and grown under antibiotic selection.
KHK-C-overexpressing HepG2 cells were grown in RPMI1640 supplemented media on T-182 cm^2 flask to near confluency (about 25-40×10^6 cells). The growth media was aspirated, the flask was washed with 10 mL PBS, and 4 mL trypsin solution (0.25% (w/v)+0.25% (w/v) EDTA) was added, followed by incubation at 37° C. for 3-5 mins. The cells were pelleted and resuspended in 2 mL complete media.
The cells were then placed in a 96-well plate at 20,000-40,000 cells per well and grown for 20-28 hours at 37° C. to allow adherence.
Inhibitor compounds were diluted in DMSO to 50 μM, then serially diluted with MEM media (ThermoFisher). Final inhibitor concentration ranged from 5000 nM to 0.32 nM.
The RPMI medium was removed from the plate of confluent cells. The plate was then incubated for 35 min at 37° C. with 0.1 mL of the diluted inhibitor compounds in MEM. After, an additional 0.1 mL of the diluted inhibitor compounds in MEM with fructose, or 0.1 mL of MEM media without inhibitor compound and/or fructose; yielding a final concentration of fructose at 30 mM was added. The plate was subsequently incubated for 5 min at 37° C., then placed on ice to stop the reactions.
Next 200 μL of cold 80% (v/v) methanol:water was added to al wells and placed in the −80° C. freezer for 1 hour with an adhesive seal. The plate was vortexed and cell debris removed by centrifugation. To measure F1P produced, the resulting supernatant fraction was analyzed by LC/MS.

Chain of human KHK in HepG2 Cells (P50053 whole entry): as the sequence (P50053 whole entry) above
Chain of human KHK-C in engineered HepG2 cells (P50053 whole entry, stated change not applied): as the sequence (P50053 whole entry) above
Chain of Human recombinant KHK-A (P50053 other isoform, or with tags, fused parts or gaps): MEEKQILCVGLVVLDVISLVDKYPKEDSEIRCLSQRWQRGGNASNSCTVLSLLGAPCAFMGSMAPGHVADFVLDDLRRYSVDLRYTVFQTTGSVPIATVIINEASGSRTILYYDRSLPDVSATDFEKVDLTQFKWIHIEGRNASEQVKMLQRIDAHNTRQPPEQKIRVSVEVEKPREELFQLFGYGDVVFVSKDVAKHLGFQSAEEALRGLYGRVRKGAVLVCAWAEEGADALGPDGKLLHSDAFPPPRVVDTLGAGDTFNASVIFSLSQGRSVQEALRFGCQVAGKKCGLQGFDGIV
Chain of Rat recombinant KHK-C (Q02974 whole entry): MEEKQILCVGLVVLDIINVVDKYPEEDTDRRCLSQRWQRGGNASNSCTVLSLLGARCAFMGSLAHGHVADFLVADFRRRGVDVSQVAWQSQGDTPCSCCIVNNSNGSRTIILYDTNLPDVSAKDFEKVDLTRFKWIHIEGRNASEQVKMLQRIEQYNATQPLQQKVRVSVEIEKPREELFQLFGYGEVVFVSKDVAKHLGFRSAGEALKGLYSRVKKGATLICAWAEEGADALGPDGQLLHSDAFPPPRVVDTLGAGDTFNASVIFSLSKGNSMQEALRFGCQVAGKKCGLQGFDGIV

For orientation: IC50 means the concentration that gives 50% inhibition. As for `Cc1c(-c2cnn(CC(=O)N3CCNCC3)c2)nc(N2CC[C@@H]2C)nc1C(F)(F)F` [Compound A3, 2-(4-{2-[(S)-2-methyl-1-azetidinyl]-5-methyl-6-(trifluoromethyl)-4-pyrimidinyl}-1-pyrazolyl)-1-(1-piperazinyl)-1-ethanone], the IC50 stood at 4.6 nM on Human recombinant KHK-A; 7.48 nM on Human recombinant KHK-C; 2.9 nM on Rat recombinant KHK-A; 8.3 nM on Rat recombinant KHK-C; 25 nM at human KHK in HepG2 Cells; 186 nM in assay [1].

Take `C[C@H]1[C@H](O)CN1c1nc(-c2cnn(C3CN(C)C3)c2)cc(C(F)F)n1` [Compound A9, (2S,3R)-1-{6-(difluoromethyl)-4-[1-(1-methyl-3-azetidinyl)-4-pyrazolyl]-2-pyrimidinyl}-2-methyl-3-azetidinol]: the IC50 at Human recombinant KHK-A was 22 nM; on Human recombinant KHK-C, 40.5 nM; on Rat recombinant KHK-A it was 10 nM; on Rat recombinant KHK-C, 37 nM; in assay [1], 184 nM.

For `Cc1c(-c2cnn(C3CN(C)C3)c2)nc(N2C[C@@H](O)[C@@H]2C)nc1C(F)(F)F` [Compound A12, (2S,3R)-2-methyl-1-{5-methyl-4-[1-(1-methyl-3-azetidinyl)-4-pyrazolyl]-6-(trifluoromethyl)-2-pyrimidinyl}-3-azetidinol], the concentration for half-maximal inhibition (IC50) at Human recombinant KHK-A turned out to be 4.1 nM; at Human recombinant KHK-C, 1.05 nM; on Rat recombinant KHK-A, 1.3 nM; on Rat recombinant KHK-C, 3.3 nM; on human KHK in HepG2 Cells it was 1 nM; in assay [1] it was 33.5 nM.

As to `C[C@H]1[C@H](O)CN1c1nc(-c2cnn(C3CN(C)C3)c2)cc(C(F)(F)F)n1` [Compound C3, reference compound], the IC50 was 4 nM against human KHK in HepG2 Cells and 191 nM in assay [1].

As to `Cc1c(-c2cnn(C3CNC3)c2)nc(N2C[C@@H](O)[C@@H]2C)nc1C(F)F` [Compound A35, (2S,3R)-1-{4-[1-(3-azetidinyl)-4-pyrazolyl]-6-(difluoromethyl)-5-methyl-2-pyrimidinyl}-2-methyl-3-azetidinol], the IC50 on Human recombinant KHK-A was determined as 1.9 nM; on Human recombinant KHK-C, 4.85 nM; on Rat recombinant KHK-A, 4.1 nM; at Rat recombinant KHK-C it was 7.7 nM; on human KHK in HepG2 Cells, 9 nM; in assay [1], 82 nM.

Regarding `C[C@H]1CCN1c1nc(-c2cnn(CC(=O)N3CCNCC3)c2)cc(C(F)(F)F)n1` [Compound C2, reference compound], the IC50 on human KHK in HepG2 Cells was determined as 91 nM; in assay [1] it was 457 nM.

Consider `Cc1c(-c2cnn(C3CN(C)C3)c2)nc(N2C[C@@H](O)[C@@H]2C)nc1C(F)F` [Compound A21, (2S,3R)-1-{6-(difluoromethyl)-5-methyl-4-[1-(1-methyl-3-azetidinyl)-4-pyrazolyl]-2-pyrimidinyl}-2-methyl-3-azetidinol], for which the IC50 on Human recombinant KHK-A amounted to 2.05 nM; on Human recombinant KHK-C it was 1.5 nM; on Rat recombinant KHK-A, 1.46 nM; at Rat recombinant KHK-C, 3.33 nM; against human KHK in HepG2 Cells it was 2 nM; in assay [1], 36.5 nM.
